Like-named read-outs stand apart in the source and are kept apart here.
Experiments:
[1] = tested on: IRF pathway; assay: Reporter gene expression assay in THP1-Dual cells, IRF axis (secreted Lucia luciferase); format: cell-based, human; settings: read-out: THP-IRF activity (EC50 range)
Procedure: (§1) THP1-Dual™ cells (Invivogen) were derived from the human THP-1 monocyte cell line by stable integration of two inducible reporter constructs. As a result, THP1-Dual™ cells allow the simultaneous study of the NF-κB pathway, by monitoring the activity of secreted SEAP, and the IRF pathway, by assessing the activity of a secreted luciferase (Lucia). […] THP1-Dual™ cells were seeded in 384-well plates in growth medium and stimulated with novel compounds. After […] of stimulation supernatant were removed and reporter proteins were readily measured in the cell culture supernatant using QUANTI-Blue™ (Invivogen), a SEAP detection reagent, and QUANTI-Luc™ (Invivogen), a luciferase detection reagent on a Spectramax i3X luminometer.

[2] = target: T1, hSTING(H232) (Homo sapiens, UniProt Q86WV6); assay: Luciferase reporter assay in HEK293T-hSTING-Luciferase cells, H232 polymorph; format: cell-based; settings: 20 hr stimulation, read-out: H232 activity (EC50 range)
T1 construct: host or cells: HEK293T
T1 sequence (Q86WV6 whole entry): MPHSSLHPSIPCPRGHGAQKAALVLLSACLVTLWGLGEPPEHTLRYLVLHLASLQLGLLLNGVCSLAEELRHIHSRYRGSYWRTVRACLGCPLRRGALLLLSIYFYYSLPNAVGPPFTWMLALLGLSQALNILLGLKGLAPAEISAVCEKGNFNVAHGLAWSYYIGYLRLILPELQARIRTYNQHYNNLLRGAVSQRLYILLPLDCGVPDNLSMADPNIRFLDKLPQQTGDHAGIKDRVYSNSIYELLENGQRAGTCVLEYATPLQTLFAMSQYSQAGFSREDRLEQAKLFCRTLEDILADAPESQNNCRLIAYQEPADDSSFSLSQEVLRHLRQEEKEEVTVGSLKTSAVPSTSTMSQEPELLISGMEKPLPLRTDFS
Description: (§2) • a) Stable STING expressing cells—Stable HEK293T STING-expressing cell lines were generated using plasmids purchased from Invivogen, Calif., USA, that contain STING cDNA cloned into the pUNO-1 vector under hEF1-HTLV promoter and containing the Blasticidin selection cassette. The plasmids hSTING(R232), hSTING(H232), hSTING(HAQ) were directly procured from Invivogen while hSTING (AQ) and hSTING (Q) were derived from hSTING(HAQ) and hSTING (R232) plasmids respectively by using a PCR based site directed mutagenesis method. These vectors were individually transfected into HEK293T cells using Lipofectamine (Invitrogen) and transfected cells were selected under Blasticidin selection. These transfected cells were further subjected to clonal selection using the limiting dilution method to obtain clonally pure populations of HEK cells transfected with each of the above mentioned human STING variants. Only those clones were selected in which ligand independent activation of STING was minimal. • b) Stable Luciferase reporter gene expressing cells—Stable HEK293T Luciferase reporter gene expressing cell lines were generated using pCDNA4 plasmids under an IRF-inducible promoter. This promoter is comprised of five tandem interferon-stimulated response elements (ISRE) fused to an ISG54 minimal promoter. This vector was transfected into HEK293T cells using Lipofectamine (Invitrogen) and transfected cells were selected under Zeocin selection. These transfected cells were further subjected to clonal selection using the limiting dilution method to obtain clonally pure populations of HEK cells transfected the Luciferase reporter construct. Only those clones were selected in which ligand independent induction of luciferase was minimal.
(§3) 5×10^5 clonally selected HEK293T-hSTING-Luciferase cells were seeded in 384-well plates in growth medium and stimulated with novel compounds. After 20 hr of stimulation supernatant were removed and secretary reporter gene activity were measured using the Quanti-Luc detection system (Invivogen) on a Spectramax i3X luminometer.
(§4) The 5 major polymorphisms of human STING are shown in FIG. 1, with their prevalence in human populations indicated.

[3] = tested on: NF-κB pathway; assay: Reporter gene expression assay in THP1-Dual cells, NFkB axis (secreted SEAP); format: cell-based, human; settings: read-out: THP-NFKB activity (EC50 range)
Procedure: as §1

[4] = target: T2, WT/R232 STING protein (Homo sapiens, UniProt Q86WV6, H232R); assay: Luciferase reporter assay in HEK293T-hSTING-Luciferase cells, WT/R232; format: cell-based; settings: 20 hr stimulation, read-out: R232 Activity (EC50 range)
T2 construct: host or cells: HEK293T
T2 sequence (Q86WV6 whole entry H232R): as the sequence (Q86WV6 whole entry) above, with H232R counted along it
Method in brief: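 Clonal HEK293T cells stably expressing human STING R232 plus an ISRE/ISG54-driven luciferase reporter, 5×10^5 per well, stimulated with compounds for 20 h. Secreted luciferase in supernatant measured by luminescence; […].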

[5] = target: T3, hSTING(HAQ) (Homo sapiens, UniProt Q86WV6, G230A/H232R/R293Q/R71H); assay: Luciferase reporter assay in HEK293T-hSTING-Luciferase cells, HAQ polymorph; format: cell-based; settings: 20 hr stimulation, read-out: HAQ activity (EC50 range)
T3 construct: host or cells: HEK293T
T3 sequence (Q86WV6 whole entry R71H/G230A/H232R/R293Q): as the sequence (Q86WV6 whole entry) above, with R71H, G230A, H232R, R293Q counted along it
Description: as §2, §3, §4

EC50 ([1]; Homo sapiens, THP1-Dual) [nM]	EC50 [2] [nM]	EC50 ([3]; Homo sapiens, THP1-Dual) [nM]	EC50 [4] [nM]	EC50 [5] [nM]	EC50 [1] [nM]	EC50 [3] [nM]	Structure (SMILES)
> 10000	> 10000	> 10000	1000 to 10000	> 10000	–	–	CC1(C)Sc2ccc(C(=O)NCC3CCCCC3)cc2N(Cc2ccccc2F)C1=O [Example 136, N-(cyclohexylmethyl)-4-(2-fluorobenzyl)-2,2-dimethyl-3-oxo-3,4-dihydro-2H-benzo[b-1,4]thiazine-6-carboxamide]
1000 to 10000	< 1000	1000 to 10000	< 1000	< 1000	–	–	CC1Sc2ccc(C(=O)NCc3c(F)cc(F)cc3F)cc2N(Cc2c(F)cccc2Cl)C1=O (stereo not drawn) [Example 138, 4-(2-chloro-6-fluorobenzyl)-2-methyl-3-oxo-N-(2,4,6-trifluorobenzyl)-3,4-dihydro-2H-benzo[b-1,4]thiazine-6-carboxamide]
1000 to 10000	1000 to 10000	1000 to 10000	< 1000	< 1000	–	–	Cc1cccc(CNC(=O)c2ccc3c(c2)N(Cc2ccccc2F)C(=O)C(C)S3)c1 (stereo not drawn) [Example 141, 4-(2-fluorobenzyl)-2-methyl-N-(3-methylbenzyl)-3-oxo-3,4-dihydro-2H-benzo[b-1,4]thiazine-6-carboxamide]
1000 to 10000	1000 to 10000	1000 to 10000	< 1000	1000 to 10000	–	–	Cc1cccc(CNC(=O)c2ccc3c(c2)N(Cc2cc(F)cc(F)c2)C(=O)C(C)S3)c1 (stereo not drawn) [Example 144, 4-(3,5-difluorobenzyl)-2-methyl-N-(3-methylbenzyl)-3-oxo-3,4-dihydro-2H-benzo[b-1,4]thiazine-6-carboxamide]
> 10000	1000 to 10000	> 10000	< 1000	1000 to 10000	–	–	C=CCC1Sc2ccc(C(=O)NCc3c(F)cc(F)cc3F)cc2N(Cc2c(F)cccc2Cl)C1=O (stereo not drawn) [Example 146, 2-allyl-4-(2-chloro-6-fluorobenzyl)-3-oxo-N-(2,4,6-trifluorobenzyl)-3,4-dihydro-2H-benzo[b-1,4]thiazine-6-carboxamide]
> 10000	1000 to 10000	> 10000	< 1000	1000 to 10000	–	–	CCCC1Sc2ccc(C(=O)NCc3c(F)cc(F)cc3F)cc2N(Cc2c(F)cccc2Cl)C1=O (stereo not drawn) [Example 147, 4-(2-chloro-6-fluorobenzyl)-3-oxo-2-propyl-N-(2,4,6-trifluorobenzyl)-3,4-dihydro-2H-benzo[b-1,4]thiazine-6-carboxamide]
> 10000	> 10000	> 10000	< 1000	> 10000	–	–	Cc1ccc(CNC(=O)c2ccc3c(c2)N(Cc2cc(F)cc(F)c2)C(=O)C(C)S3)o1 (stereo not drawn) [Example 152, 4-(3,5-difluorobenzyl)-2-methyl-N-((5-methylfuran-2-yl)methyl)-3-oxo-3,4-dihydro-2H-benzo[b][1,4] thiazine-6-carboxamide]
1000 to 10000	1000 to 10000	1000 to 10000	< 1000	1000 to 10000	–	–	CC1Sc2ccc(C(=O)NCc3c(F)cc(F)cc3F)cc2N(Cc2ccncc2)C1=O (stereo not drawn) [Example 157, 2-methyl-3-oxo-4-(pyridin-4-ylmethyl)-N-(2,4,6-trifluorobenzyl)-3,4-dihydro-2H-benzo[b][1,4] thiazine-6-carboxamide]

The next lines start with the molecule.

Structure (SMILES)	EC50 ([1]; Homo sapiens, THP1-Dual) [nM]	EC50 [2] [nM]	EC50 ([3]; Homo sapiens, THP1-Dual) [nM]	EC50 [4] [nM]	EC50 [5] [nM]	EC50 [1] [nM]	EC50 [3] [nM]
O=C(NCc1ccco1)c1ccc2c(c1)N(Cc1c(F)cccc1Cl)C(=O)CS2 [Example 131, 4-(2-chloro-6-fluorobenzyl)-N-(furan-2-ylmethyl)-3-oxo-3,4-dihydro-2H-benzo[b][1,4]thiazine-6-carboxamide]	> 10000	1000 to 10000	> 10000	1000 to 10000	> 10000	–	–
CC1Sc2ccc(C(=O)NCc3c(F)cc(F)cc3F)cc2N(Cc2cnn(C)c2)C1=O (stereo not drawn) [Example 133, 2-methyl-N-2,4,6-trifluorobenzyl-4-[(1-methyl-1H-pyrazol-4-yl)methyl]-3-oxo-3,4-dihydro-2H-1,4-benzothiazine-6-carboxamide]	> 10000	1000 to 10000	1000 to 10000	1000 to 10000	1000 to 10000	–	–
CC1Sc2ccc(C(=O)NCc3c(F)cc(F)cc3F)cc2N(Cc2cc(F)cc(F)c2)C1=O (stereo not drawn) [Example 145, 4-(3,5-difluorobenzyl)-2-methyl-3-oxo-N-(2,4,6-trifluorobenzyl)-3,4-dihydro-2H-benzo[b-1,4]thiazine-6-carboxamide]	–	< 1000	–	< 1000	< 1000	1000 to 10000	1000 to 10000
CC1Sc2ccc(C(=O)NCc3c(F)cc(F)cc3F)cc2N(Cc2cc(F)cc(F)c2)C1=O (stereo not drawn) [Example 148, 4-(3,5-difluorobenzyl)-2-methyl-3-oxo-N-(2,4,6-trifluorobenzyl)-3,4-dihydro-2H-benzo[b][1,4] thiazine-6-carboxamide]	–	< 1000	–	< 1000	< 1000	1000 to 10000	< 1000
CC1Sc2ccc(C(=O)NCc3cc4ccccc4o3)cc2N(Cc2cc(F)cc(F)c2)C1=O (stereo not drawn) [Example 149, N-(benzofuran-2-ylmethyl)-4-(3,5-difluorobenzyl)-2-methyl-3-oxo-3,4-dihydro-2H-benzo[b][1,4] thiazine-6-carboxamide]	1000 to 10000	< 1000	< 1000	< 1000	< 1000	–	–
CC1(CO)Sc2ccc(C(=O)NCc3ccc(F)cc3F)cc2N(Cc2c(F)cccc2Cl)C1=O (stereo not drawn) [Example 151, 4-(2-chloro-6-fluorobenzyl)-N-(2,4-difluorobenzyl)-2-(hydroxymethyl)-2-methyl-3-oxo-3,4-dihydro-2H-benzo[b][1,4] thiazine-6-carboxamide]	1000 to 10000	1000 to 10000	1000 to 10000	< 1000	1000 to 10000	–	–
CC1Sc2ccc(C(=O)NCc3c(F)cc(F)cc3F)cc2N(Cc2cc(F)cc(F)c2)C1=O (stereo not drawn) [Example 153, 4-(3,5-difluorobenzyl)-2-methyl-3-oxo-N-(2,4,6-trifluorobenzyl)-3,4-dihydro-2H-benzo[b][1,4] thiazine-6-carboxamide]	1000 to 10000	1000 to 10000	1000 to 10000	< 1000	1000 to 10000	–	–
CC1(C)Sc2ccc(C(=O)NCc3cc4ccccc4o3)cc2N(Cc2c(F)cccc2Cl)C1=O [Example 154, N-(benzofuran-2-ylmethyl)-4-(2-chloro-6-fluorobenzyl)-2,2-dimethyl-3-oxo-3,4-dihydro-2H-benzo[b][1,4] thiazine-6-carboxamide]	1000 to 10000	1000 to 10000	1000 to 10000	< 1000	< 1000	–	–
CC1Sc2ccc(C(=O)NCc3ccco3)cc2N(Cc2cc(F)cc(F)c2)C1=O (stereo not drawn) [Example 156, 4-(3,5-difluorobenzyl)-N-(furan-2-ylmethyl)-2-methyl-3-oxo-3,4-dihydro-2H-benzo [b][1,4]thiazine-6-carboxamide]	1000 to 10000	1000 to 10000	1000 to 10000	< 1000	1000 to 10000	–	–
Cc1cc(CN2C(=O)C(C)Sc3ccc(C(=O)NCc4c(F)cc(F)cc4F)cc32)on1 (stereo not drawn) [Example 158, 2-methyl-4-((3-methylisoxazol-5-yl)methyl)-3-oxo-N-(2,4,6-trifluorobenzyl)-3,4-dihydro-2H-benzo[b][1,4] thiazine-6-carboxamide]	1000 to 10000	1000 to 10000	1000 to 10000	< 1000	1000 to 10000	–	–

From patent US20200138827A1, “SMALL MOLECULE MODULATORS OF HUMAN STING” (Curadev Pharma Limited, priority 2017, published 2020)
